# Measured values from patent US20250230165A1, “HETEROCYCLIC COMPOUNDS FOR USE IN THE TREATMENT OF CANCER” (ARTIOS PHARMA LIMITED, priority 2021, published 2025).
# Target: T1, Human Polθ polymerase domain (aa1820-2590) (Homo sapiens, UniProt O75417)
# T1 construct: Human Polθ polymerase domain (aa1820-2590) was expressed in E. coli; made in house; host or cells: E. coli
# T1 sequence (O75417 1820-2590): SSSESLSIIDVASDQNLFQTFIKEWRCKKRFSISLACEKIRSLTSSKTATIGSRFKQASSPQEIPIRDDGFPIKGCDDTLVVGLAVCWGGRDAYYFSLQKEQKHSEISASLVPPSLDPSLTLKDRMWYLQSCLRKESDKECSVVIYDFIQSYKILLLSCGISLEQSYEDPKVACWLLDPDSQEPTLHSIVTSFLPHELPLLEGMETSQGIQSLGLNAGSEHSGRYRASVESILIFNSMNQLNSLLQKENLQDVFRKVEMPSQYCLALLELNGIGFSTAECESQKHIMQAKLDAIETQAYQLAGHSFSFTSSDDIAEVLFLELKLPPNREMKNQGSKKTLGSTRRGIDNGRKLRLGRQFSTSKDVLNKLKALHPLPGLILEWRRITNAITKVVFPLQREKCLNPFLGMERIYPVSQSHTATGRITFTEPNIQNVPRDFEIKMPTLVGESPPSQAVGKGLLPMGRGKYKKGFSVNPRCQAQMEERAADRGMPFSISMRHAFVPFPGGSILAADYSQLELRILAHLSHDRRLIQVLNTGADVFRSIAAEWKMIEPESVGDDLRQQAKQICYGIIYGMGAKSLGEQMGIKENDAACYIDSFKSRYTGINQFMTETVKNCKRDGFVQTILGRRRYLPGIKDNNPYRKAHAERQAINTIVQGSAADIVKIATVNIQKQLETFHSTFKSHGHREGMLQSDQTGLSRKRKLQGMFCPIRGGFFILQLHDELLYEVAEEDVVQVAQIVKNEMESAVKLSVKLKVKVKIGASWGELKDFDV
# Assay: Polθ Polymerase Domain Kinact/KI Assay (PicoGreen)
# Assay type: biochemical
# Details: 0.8 nM Polθ, 100 nM DNA substrate, kobs vs [I] fit for 2-step covalent inhibitor
# Outline: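 Time-dependent inhibition was followed by quenching reactions with EDTA at points up to 60 min, then staining product DNA with PicoGreen fluorescence. Reactions held 0.8 nM E. coli-expressed Polθ, 100 nM primed DNA substrate and […] at pH 7.5, 1% DMSO. kobs versus inhibitor concentration gave Kinact and KI.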
row,Kinact/Kl,SMILES
1,5.05e+06 M⁻¹ s⁻¹,"C=C(CN(C)C)C(=O)N1CC(c2cccc(CN3C[C@H]4CC(=O)N(c5cc(C(F)(F)F)cc(C)n5)[C@@H]4C(=O)N(C)c4cccc(F)c43)c2)C1 [Example 152, (3aR, 11aS)-5-(3-(1-(2-((dimethylamino)methyl)acryloyl)azetidin-3-yl)benzyl)-6-fluoro-10-methyl-1-(6-methyl-4-(trifluoromethyl)pyridin-2-yl)-1,3a,4,5,10,11a-hexahydro-2H-benzo[b]pyrrolo[2,3-f][1,4]diazocine-2,11(3H)-dione]"
2,1.51e+06 M⁻¹ s⁻¹,"C=C(CN(C)C)C(=O)N1Cc2ccc(CN3C[C@H]4CC(=O)N(c5cc(C(F)(F)F)cc(C)n5)[C@@H]4C(=O)N(C)c4cccc(F)c43)cc2C1 [Example 153, (3aR, 11aS)-5-((2-(2-((dimethylamino)methyl)acryloyl)isoindolin-5-yl)methyl)-6-fluoro-10-methyl-1-(6-methyl-4-(trifluoromethyl)pyridin-2-yl)-1,3a,4,5,10,11a-hexahydro-2H-benzo[b]pyrrolo[2,3-f][1,4]diazocine-2,11(3H)-dione]"
3,2.3e+06 M⁻¹ s⁻¹,"C=C(CN(C)C)C(=O)N1CCc2cc(CN3C[C@H]4CC(=O)N(c5cc(C(F)(F)F)cc(C)n5)[C@@H]4C(=O)N(C)c4cccc(F)c43)ccc2C1 [Example 154, (3aR, 11aS)-5-((2-(2-((dimethylamino)methyl)acryloyl)-1,2,3,4-tetrahydroisoquinolin-6-yl)methyl)-6-fluoro-10-methyl-1-(6-methyl-4-(trifluoromethyl)pyridin-2-yl)-1,3a,4,5,10,11a-hexahydro-2H-benzo[b]pyrrolo[2,3-f][1,4]diazocine-2,11(3H)-dione]"
4,2.51e+06 M⁻¹ s⁻¹,"Cc1cc(C(F)(F)F)cc(N2C(=O)C[C@@H]3CN(CC4CCC(C5CN(C(=O)/C=C/CN(C)C)C5)CC4)c4c(Cl)cccc4N(C)C(=O)[C@H]32)n1 (stereo partly drawn) [Example 155, (3aR, 11aS)-6-chloro-5-((4-(1-((E)-4-(dimethylamino)but-2-enoyl)azetidin-3-yl)cyclohexyl)methyl)-10-methyl-1-(6-methyl-4-(trifluoromethyl)pyridin-2-yl)-1,3a,4,5,10,11a-hexahydro-2H-benzo[b]pyrrolo[2,3-f][1,4]diazocine-2,11(3H)-dione]"
5,3.95e+06 M⁻¹ s⁻¹,"C=C(CN(C)C)C(=O)N1CC(OCCCN2C[C@H]3CC(=O)N(c4cc(C(F)(F)F)cc(C)n4)[C@@H]3C(=O)N(C)c3cccc(Cl)c32)C1 [Example 156, (3aR,11aS)-6-chloro-5-(3-((1-(2-((dimethylamino)methyl)acryloyl)azetidin-3-yl)oxy)propyl)-10-methyl-1-(6-methyl-4-(trifluoromethyl)pyridin-2-yl)-1,3a,4,5,10,11a-hexahydro-2H-benzo[b]pyrrolo[2,3- ][1,4]diazocine-2,11(3H)-dione]"
6,1.57e+06 M⁻¹ s⁻¹,"C=C(CN(C)C)C(=O)N1CCC(OCCN2C[C@H]3CC(=O)N(c4cc(C(F)(F)F)cc(C)n4)[C@@H]3C(=O)N(C)c3cccc(Cl)c32)CC1 [Example 157, (3aR,11aS)-6-chloro-5-(2-((1-(2-((dimethylamino)methyl)acryloyl)piperidin-4-yl)oxy)ethyl)-10-methyl-1-(6-methyl-4-(trifluoromethyl)pyridin-2-yl)-1,3a,4,5,10,11a-hexahydro-2H-benzo[b]pyrrolo[2,3-f][1,4]diazocine-2,11(3H)-dione]"
7,3.72e+06 M⁻¹ s⁻¹,"C=C(CN(C)C)C(=O)N1CCC(CCCN2C[C@H]3CC(=O)N(c4cc(C(F)(F)F)cc(C)n4)[C@@H]3C(=O)N(C)c3cccc(Cl)c32)CC1 [Example 158, (3aR,11aS)-6-chloro-5-(3-(1-(2-((dimethylamino)methyl)acryloyl)piperidin-4-yl)propyl)-10-methyl-1-(6-methyl-4-(trifluoromethyl)pyridin-2-yl)-1,3a,4,5,10,11a-hexahydro-2H-benzo[b]pyrrolo[2,3-f][1,4]diazocine-2,11(3H)-dione]"
8,3.07e+06 M⁻¹ s⁻¹,C=C(CN(C)C)C(=O)N1CCn2cc(CN3C[C@H]4CC(=O)N(c5cc(C(F)(F)F)cc(C)n5)[C@@H]4C(=O)N(C)c4cccc(Cl)c43)nc2C1 [Example 159]
9,2.3e+06 M⁻¹ s⁻¹,"C=C(CN(C)C)C(=O)N1CC(C2CCC(CN3C[C@H]4CC(=O)N(c5cc(C(F)(F)F)cc(C)n5)[C@@H]4C(=O)N(C)c4cccc(Cl)c43)CC2)C1 (stereo partly drawn) [Example 160, (3aR,11aS)-6-chloro-5-((4-(1-(2-((dimethylamino)methyl)acryloyl)azetidin-3-yl)cyclohexyl)methyl)-10-methyl-1-(6-methyl-4-(trifluoromethyl)pyridin-2-yl)-1,3a,4,5,10,11a-hexahydro-2H-benzo[b]pyrrolo[2,3-f][1,4]diazocine-2,11(3H)-dione]"
10,5.08e+06 M⁻¹ s⁻¹,"C=C(CN(C)C)C(=O)N1CC(CCCCN2C[C@H]3CC(=O)N(c4cc(C(F)(F)F)cc(C)n4)[C@@H]3C(=O)N(C)c3cccc(Cl)c32)C1 [Example 161, (3aR, 11aS)-6-chloro-5-(4-(1-(2-((dimethylamino)methyl)acryloyl)azetidin-3-yl)butyl)-10-methyl-1-(6-methyl-4-(trifluoromethyl)pyridin-2-yl)-1,3a,4,5,10,11a-hexahydro-2H-benzo[b]pyrrolo[2,3-f][1,4]diazocine-2,11(3H)-dione]"
11,2.95e+06 M⁻¹ s⁻¹,"C=C(CN(C)C)C(=O)N1CC(COCCN2C[C@H]3CC(=O)N(c4cc(C(F)(F)F)cc(C)n4)[C@@H]3C(=O)N(C)c3cccc(Cl)c32)C1 [Example 162, (3aR,11aS)-6-chloro-5-(2-((1-(2-((dimethylamino)methyl)acryloyl)azetidin-3-yl)methoxy)ethyl)-10-methyl-1-(6-methyl-4-(trifluoromethyl)pyridin-2-yl)-1,3a,4,5,10,11a-hexahydro-2H-benzo[b]pyrrolo[2,3-f][1,4]diazocine-2,11(3H)-dione]"
12,1.82e+06 M⁻¹ s⁻¹,"C=C(CN(C)C)C(=O)N1Cc2ccc(CN3C[C@H]4CC(=O)N(c5cc(C(F)(F)F)cc(C)n5)[C@@H]4C(=O)N(C)c4cccc(Cl)c43)cc2C1 [Example 163, (3aR,11aS)-6-chloro-5-((2-(2-((dimethylamino)methyl)acryloyl)isoindolin-5-yl)methyl)-10-methyl-1-(6-methyl-4-(trifluoromethyl)pyridin-2-yl)-1,3a,4,5,10,11a-hexahydro-2H-benzo[b]pyrrolo[2,3-f][1,4]diazocine-2,11(3H)-dione]"
13,2.38e+06 M⁻¹ s⁻¹,"C=C(CN(C)C)C(=O)NC12CC(CN3C[C@H]4CC(=O)N(c5cc(C(F)(F)F)cc(C)n5)[C@@H]4C(=O)N(C)c4cccc(Cl)c43)(C1)C2 [Example 164, N-(3-(((3aR,11aS)-6-chloro-10-methyl-1-(6-methyl-4-(trifluoromethyl)pyridin-2-yl)-2,11-dioxo-1,2,3,3a,4, 10,11,11a-octahydro-5H-benzo[b]pyrrolo[2,3-f][1,4]diazocin-5-yl)methyl)bicyclo[1.1.1]pentan-1-yl)-2-((dimethylamino)methyl) acrylamide]"
14,1.18e+06 M⁻¹ s⁻¹,"C=C(C)C(=O)N1CC(OCCCN2C[C@H]3CC(=O)N(c4cc(C(F)(F)F)cc(C)n4)[C@@H]3C(=O)N(C)c3cccc(Cl)c32)C1 [Example 165, (3aR,11aS)-6-chloro-5-(3-((1-methacryloylazetidin-3-yl)oxy)propyl)-10-methyl-1-(6-methyl-4-(trifluoromethyl)pyridin-2-yl)-1,3a,4,5,10,11a-hexahydro-2H-benzo[b]pyrrolo[2,3-f][1,4]diazocine-2,11(3H)-dione]"
